Assays:
brain tMHA levels = test: Brain tele-methylhistamine (tMHA) levels by LC-MS; format: in vivo, mice; settings: oral, 30 minutes after administration
Description: Histamine (HA) is released all over the brain by tuberomammillary nucleus neurons. […] HA is metabolized by histamine-N-methyltransferase to tele-methylhistamine (tMHA) in some tissues, including brain.
Mice (n=8) were treated during the first hour of the lights-on period and sacrificed 30 min later. Brain tissue was collected and subjected to LC-MS analysis (Croyal et al. Analytical Biochemistry, 2011, 409:28-36) to determine t-MHA levels.

Cynomolgus monkey = test: Signs for emergence from ketamine/sevoflurane anesthesia in nonhuman primate (PET experiment); format: in vivo
Description: Said experiment was performed on the α7 nAChR in the non-human primate (NHP) brain.
An animal (Cynomolgus monkey, male, 5.8 kg) was anesthesized for the entire duration of the PET experiment, i.e. for approximately 7.5 hours. Due to the nature of these experiments, it is crucial that anesthesia is maintained.
General anesthesia was induced by i.m. injection of ketamine hydrochloride (10 mg/kg, Ketaminol, Intervet AB). The animal was intubated and general anesthesia was maintained by inhalational administration of sevoflurane (1.5-8%, Abbott Scandinavia AB). Body temperature was maintained by Bair Hugger Model 505 (Arizant Healthcare Inc., Eden Prairie, Minn., USA). ECG, pulse, blood pressure, respiration rate, oxygen saturation and tidal CO2 level were monitored continuously during the experiment. Ventilation of the animal (breathing frequency and volume) was controlled by machine during the general anesthesia. The animal underwent two consecutive PET scans. The PET ligand was administered i.v. at doses too low to have a pharmacodynamic effect (i.e. total dose of 0.16 and 0.25 μg). Before the start of the second PET scan, 10 mg/kg of compound A-1 was administered to the animal using an oral gavage tube.

mice = test: EEG assessment of sleep behavior and vigilance stage; format: in vivo; settings: for Active wake (β and γ frequencies), mean difference drug-vehicle / NREM (δ frequency), mean difference drug-vehicle / Quiet wake (α frequency), mean difference drug-vehicle / REM (θ frequency), mean difference drug-vehicle: 30 mg/kg oral
Description: Animals have temporal skull EEG electrodes implanted which are connected to transmitters. Animals were group-housed (2-4) per cage at a constant temperature of 22±1° C., on a 12:12 light-dark schedule. The EEG is recorded via a receiver and stored on a PC for further analysis. EEG is used to assess and to quantify sleep behavior and vigilance stage.
Animals were given a 1-day period of acclimatization in the recording cages with recording cables connected. On the 1st day of the experiment, EEG recordings were made continuously during a 22-hours period beginning at 11 A.M., 15 min after vehicle administration. On the second day of the experiment, EEG recordings were carried out in the same way, but 15 minutes after drug administration. In this way, each animal served as its own control. 10 animals were recorded from simultaneously in each experiment. Automatic evaluation of the nycthemeral cycle (REM sleep, classical sleep, wakefulness and an awake non-vigilant state termed “drowsiness”) was performed as described (Vigouret et al., 1978 Pharmacology 16 Suppl 1:156-73). In the present context, “quiet wake” and “active wake”, describe conscious animals in a resting and an active state, respectively, while “REM” and “NREM” represent sleep states.
FIG. 3 depicts the effects of 30 mg/kg compound B-1, orally administered 6 h after lights on (9:00) in mice (n=10) on quiet wake (α frequency, 9.5-12.5 Hz), active wake (β frequency, 12.5-30.5 Hz; and γ frequency, >30.5 Hz), REM sleep (θ frequency, 4.5-9.5 Hz) and NREM sleep (δ frequency, <4.5 Hz). Assessment period shown is 3 hours.

orexin-deficient mice = test: Orexin-deficiency model: number of narcoleptic episodes (behavioral arrests); format: in vivo
Source text: Male transgenic mice with a knockout of the orexin peptide gene are used. Orexin-deficient mice express a phenotype with cataplexy events (observed as ‘behavioral arrests’) and a disrupted sleep pattern including fragmented sleep and sleepiness in their active period.
The animals are observed and videotaped via infrared cameras during the first hours of the lights-off period which is the active phase of nocturnal rodents like mice. At this time, orexin-deficient mice show the most ‘behavioral arrests’. The number of these events can be furthermore increased by presenting a new environment. For this purpose, new saw dust, a running wheel, marbles and tunnels are placed in the test environment. The number of ‘behavioral arrests’ are offline counted by the experimenter for each hour of recording. Behavioral arrests were defined by phases of total inactivity outside the next box, which last longer than 10 second, preceded and followed by robust locomotor activity (see also Scammell et al., 2009, Sleep 32(1): 111-116). Some of the animals have temporal skull EEG electrodes implanted which are connected to transmitters. The EEG is recorded via a receiver and stored on a PC for further analysis. EEG is used to assess and to quantify sleep behavior and vigilance stage.
A cross-over design is used because of the high inter- and intra-individual variability of the behaviors to be observed. Furthermore, to avoid habituation to the test environment, the animals are only tested once per week in the test environment. During the remaining days, the animals are in their homecage.
For each experimental session, 3-4 mice are put into the test environment 3 hours before lights-off. The first experimental session (week 1) is used to get a baseline (without treatment). The second and third sessions (weeks 2+3) are used for treatment (vehicle & compound, cross-over design, administration 5 minutes before lights-off). The fourth and last experimental session is again without treatment to evaluate a post-treatment baseline.

[1] = cited from earlier work
[2] = 30 mg/kg oral 6 h after lights on, 3 hours assessment

C[C@H](OC(=O)N[C@@H]1CN2CCC1CC2)c1ccccc1F [A-1, (S)-(1-aza-bicyclo[2.2.2]oct-3-yl)-carbamic acid (S)-1-(2-fluoro-phenyl)-ethyl ester]
brain tMHA levels (brain tMHA levels; 10 mg/kg dose): significant elevation
change in breathing behavior (sign for emergence from general anesthesia) (Cynomolgus monkey; 10 mg/kg oral gavage, fifteen minutes after administration, sevoflurane 2.9%): shallow breathing was observed
doses of sevoflurane necessary to maintain anesthesia after the compound (Cynomolgus monkey; rest of experiment (about two hours) after 10 mg/kg oral, 2.6-2.9% before the compound): 3.0-3.7%

Cc1ccc(-c2ccc(O[C@H]3CN4CCC3CC4)cn2)cc1 [B-1, (R)-3-(6-p-tolyl-pyridin-3-yloxy)-1-aza-bicyclo[2.2.2]octane]
effect on NREM sleep (mice; [2]): decline of NREM sleep
effect on time spent in quiet wake (mice; [2]): increases the time spent in quiet wake
Active wake (β and γ frequencies), mean difference drug-vehicle (mice; time point 9:30): 0.9 min
NREM (δ frequency), mean difference drug-vehicle (mice; time point 9:30): -12.4 min
Quiet wake (α frequency), mean difference drug-vehicle (mice; time point 9:30): 14.3 min
REM (θ frequency), mean difference drug-vehicle (mice; time point 9:30): -2.2 min
Active wake (β and γ frequencies), mean difference drug-vehicle (mice; time point 10:30): 3.6 min
NREM (δ frequency), mean difference drug-vehicle (mice; time point 10:30): -7.1 min
Quiet wake (α frequency), mean difference drug-vehicle (mice; time point 10:30): 6.1 min
REM (θ frequency), mean difference drug-vehicle (mice; time point 10:30): -2.1 min
Active wake (β and γ frequencies), mean difference drug-vehicle (mice; time point 11:30): 0.1 min
NREM (δ frequency), mean difference drug-vehicle (mice; time point 11:30): 2.1 min
Quiet wake (α frequency), mean difference drug-vehicle (mice; time point 11:30): -1.8 min
REM (θ frequency), mean difference drug-vehicle (mice; time point 11:30): -0.9 min
Active wake (β and γ frequencies), mean difference drug-vehicle (mice; time point 12:30): 0.3 min
NREM (δ frequency), mean difference drug-vehicle (mice; time point 12:30): -0.1 min
Quiet wake (α frequency), mean difference drug-vehicle (mice; time point 12:30): -0.9 min
REM (θ frequency), mean difference drug-vehicle (mice; time point 12:30): -0.2 min
decrease of number of narcoleptic episodes, first hour of the observation period (orexin-deficient mice; 10 mg/kg orally directly before lights-off, p<0.05 Anova): ca. 66%
brain tMHA levels (brain tMHA levels; all doses tested): significantly elevated

C[C@H]1[C@H](Oc2ccc(-c3ccc4[nH]ccc4c3)nn2)C2CCN1CC2 [B-4, (2S,3R)-3-[6-(1H-indol-5-yl)-pyridazin-3-yloxy]-2-methyl-1-aza-bicyclo[2.2.2]octane]
decrease of number of narcoleptic episodes, whole 4 hours observation period (orexin-deficient mice; 3 mg/kg orally directly before lights-off, p=0.03): ca. 25%
reduction of number of narcoleptic episodes, first hour (orexin-deficient mice; 3 mg/kg orally directly before lights-off, p=0.04): ca. 47%

CCCC(C)C1(CC)C(=O)NC(=S)NC1=O (centres unmarked) [thiopentone]
dose remaining in the body ([1]; at 24 hours): ≤ 30%
elimination by oxidative metabolism in the liver, rate ([1]; in vivo): 15 % per hour
elimination half-life ([1]; in vivo): 3.4 to 22 h
initial drug effect terminated by redistribution, time ([1]; in vivo): 5 to 15 min
